In the first assay the test system is HBV rcDNA. In words: HepDE19 assay with bDNA quantitation of HBV rcDNA. The settings on record: HepDE19 assay, inhibition of formation of relaxed circular DNA (rcDNA), bDNA quantitation; read-out: DE-19bDNA EC50. In kind it is cell-based, hepatitis B virus. The gist of the method:
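HepDE19 cells (HepG2-derived, Tet-regulated HBV replication) were deprived of tetracycline and then exposed to compounds for 7 days at 37 °C in 0.5% DMSO, 8-point titration from 25 μM. rcDNA was quantified by bDNA and EC50/EC90 came from 4-parameter fits. CC50 was measured by CellTiter-Glo ATP content on replicate plates after 4 days.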
In the case of `CC(c1c[nH]c(=O)c2c(F)c(F)ccc12)N(C)C(=O)Nc1cc(Cl)c(F)c(Cl)c1` (single isomer, unassigned) [Compound 451, 3-(3,5-Dichloro-4-fluorophenyl)-1-(1-(7,8-difluoro-1-oxo-1,2-dihydroisoquinolin-4-yl)ethyl)-1-methylurea], the EC50 – broadly, the concentration that produces a half-maximal response – is 3.2 µM.
Take `CC(c1c[nH]c(=O)c2c(F)c(F)ccc12)N(C)C(=O)Nc1cc(Cl)c(F)c(Cl)c1` (single isomer, unassigned) [Compound 452, 3-(3,5-Dichloro-4-fluorophenyl)-1-(1-(7,8-difluoro-1-oxo-1,2-dihydroisoquinolin-4-yl)ethyl)-1-methylurea]: the half-maximal effective concentration (EC50) worked out at 0.047 µM.
Regarding `CC(c1c[nH]c(=O)c2c(F)c(F)ccc12)N(C)C(=O)Nc1cccc(F)c1F` (single isomer, unassigned) [Compound 458, 1-(1-(7,8-Difluoro-1-oxo-1,2-dihydroisoquinolin-4-yl)ethyl)-3-(2,3-difluorophenyl)-1-methylurea], the EC50 came to 14 µM.
As for `CC(c1c[nH]c(=O)c2c(F)c(F)ccc12)N(C)C(=O)Nc1cccc(F)c1F` (single isomer, unassigned) [Compound 459, 1-(1-(7,8-Difluoro-1-oxo-1,2-dihydroisoquinolin-4-yl)ethyl)-3-(2,3-difluorophenyl)-1-methylurea], the EC50 was determined as 0.2 µM.
Still for that read-out and setting: the result for `CCN(C(=O)Nc1ccc(F)c(F)c1)C(C)c1c[nH]c(=O)c2c(F)c(F)ccc12` (single isomer, unassigned) [Compound 462, 1-(1-(7,8-Difluoro-1-oxo-1,2-dihydroisoquinolin-4-yl)ethyl)-3-(3,4-difluorophenyl)-1-ethylurea] reads 0.92 µM; that for `CCN(C(=O)Nc1ccc(F)c(F)c1)C(C)c1c[nH]c(=O)c2c(F)c(F)ccc12` (single isomer, unassigned) [Compound 463, 1-(1-(7,8-Difluoro-1-oxo-1,2-dihydroisoquinolin-4-yl)ethyl)-3-(3,4-difluorophenyl)-1-ethylurea], 0.008 µM; that for `CCN(C(=O)Nc1ccc(F)cc1)C(C)c1c[nH]c(=O)c2c(F)c(F)ccc12` (single isomer, unassigned) [Compound 464, 1-(1-(7,8-Difluoro-1-oxo-1,2-dihydroisoquinolin-4-yl)ethyl)-1-ethyl-3-(4-fluorophenyl)urea], 2.9 µM.
Same read-out and setting: with `CCN(C(=O)Nc1ccc(F)cc1)C(C)c1c[nH]c(=O)c2c(F)c(F)ccc12` (single isomer, unassigned) [Compound 465, 1-(1-(7,8-Difluoro-1-oxo-1,2-dihydroisoquinolin-4-yl)ethyl)-1-ethyl-3-(4-fluorophenyl)urea] the figure was 0.019 µM.
On to `CCN(C(=O)Nc1ccc(F)c(Cl)c1)C(C)c1c[nH]c(=O)c2c(F)c(F)ccc12` (single isomer, unassigned) [Compound 468, 3-(3-Chloro-4-fluorophenyl)-1-(1-(7,8-difluoro-1-oxo-1,2-dihydroisoquinolin-4-yl)ethyl)-1-ethylurea], for which the half-maximal effective concentration (EC50) amounted to 1.1 µM.
On the same count and under the same terms, the result for `CCN(C(=O)Nc1ccc(F)c(Cl)c1)C(C)c1c[nH]c(=O)c2c(F)c(F)ccc12` (single isomer, unassigned) [Compound 469, 3-(3-Chloro-4-fluorophenyl)-1-(1-(7,8-difluoro-1-oxo-1,2-dihydroisoquinolin-4-yl)ethyl)-1-ethylurea] reads 0.005 µM; that for `CC(c1c[nH]c(=O)c2c(F)c(F)ccc12)N(C)C(=O)Nc1ccc(F)c(C#N)c1` (single isomer, unassigned) [Compound 470, 3-(3-Cyano-4-fluorophenyl)-1-(1-(7,8-difluoro-1-oxo-1,2-dihydroisoquinolin-4-yl)ethyl)-1-methylurea], 2 µM; that for `CC(c1c[nH]c(=O)c2c(F)c(F)ccc12)N(C)C(=O)Nc1ccc(F)c(C#N)c1` (single isomer, unassigned) [Compound 471, 3-(3-Cyano-4-fluorophenyl)-1-(1-(7,8-difluoro-1-oxo-1,2-dihydroisoquinolin-4-yl)ethyl)-1-methylurea], 0.02 µM.
Regarding `CC(c1c[nH]c(=O)c2cc(F)c(F)cc12)N(C)C(=O)NCc1ccc(F)c(F)c1` (single isomer, unassigned) [Compound 476, 1-(1-(6,7-Difluoro-1-oxo-1,2-dihydroisoquinolin-4-yl)ethyl)-3-(3,4-difluorobenzyl)-1-methylurea], the EC50 came to 0.43 µM.

Still in this assay, the particulars now being: Hepatitis B virus, HepDE19, HepDE19 assay, inhibition of formation of relaxed circular DNA (rcDNA), bDNA quantitation; read-out: DE-19bDNA EC50.
For `CC(c1c[nH]c(=O)c2c(F)c(F)ccc12)N(C)C(=O)Nc1ccnc(Cl)c1` (single isomer, unassigned) [Compound 454, 3-(2-Chloropyridin-4-yl)-1-(1-(7,8-difluoro-1-oxo-1,2-dihydroisoquinolin-4-yl)ethyl)-1-methylurea], the EC50 was 0.17 µM.

The assay is the same for the next values; noted with them: Hepatitis B virus, HepDE19, read-out: DE-19bDNA EC50 (μM), HepDE19 assay, inhibition of formation of relaxed circular DNA (rcDNA), bDNA quantitation.
For `CC(c1c[nH]c(=O)c2c(F)c(F)ccc12)N(C)C(=O)Nc1ccncc1` (single isomer, unassigned) [Compound 449, 1-(1-(7,8-Difluoro-1-oxo-1,2-dihydroisoquinolin-4-yl)ethyl)-1-methyl-3-(pyridin-4-yl)urea], the EC50 was 15 µM.
Turning to `CC(c1c[nH]c(=O)c2c(F)c(F)ccc12)N(C)C(=O)Nc1cccnc1` (single isomer, unassigned) [Compound 450, 1-(1-(7,8-Difluoro-1-oxo-1,2-dihydroisoquinolin-4-yl)ethyl)-1-methyl-3-(pyridin-3-yl)urea], the half-maximal effective concentration (EC50) was determined as 5.4 µM.
For the compound `CC(c1c[nH]c(=O)c2c(F)c(F)ccc12)N(C)C(=O)NCc1ccccc1` (single isomer, unassigned) [Compound 453, 3-Benzyl-1-(1-(7,8-difluoro-1-oxo-1,2-dihydroisoquinolin-4-yl)ethyl)-1-methylurea], the 50% effective concentration (EC50) came out at 0.29 µM.
Take `CC(c1c[nH]c(=O)c2c(F)c(F)ccc12)N(C)C(=O)Nc1ccccc1F` (single isomer, unassigned) [Compound 457, 1-(1-(7,8-Difluoro-1-oxo-1,2-dihydroisoquinolin-4-yl)ethyl)-3-(2-fluorophenyl)-1-methylurea]: the EC50 was determined as 0.74 µM.
On the same count and under the same terms, the result for `[2H]C([2H])([2H])N(C(=O)Nc1ccc(F)c(Cl)c1)C(C)c1c[nH]c(=O)c2cc(F)c(F)cc12` (single isomer, unassigned) [Compound 472, 3-(3-Chloro-4-fluorophenyl)-1-(1-(6,7-difluoro-1-oxo-1,2-dihydroisoquinolin-4-yl)ethyl)-1-(methyl-d3)urea] reads 0.007 µM.
In the case of `[2H]C([2H])([2H])N(C(=O)Nc1ccc(F)c(Cl)c1)C(C)c1c[nH]c(=O)c2c(F)c(F)ccc12` (single isomer, unassigned) [Compound 473, 3-(3-Chloro-4-fluorophenyl)-1-(1-(7,8-difluoro-1-oxo-1,2-dihydroisoquinolin-4-yl)ethyl)-1-(methyl-d3)urea], the EC50 worked out at 0.01 µM.
Turning to `[2H]C([2H])([2H])N(C(=O)Nc1cccc(Cl)c1)C(C)c1c[nH]c(=O)c2c(F)c(F)ccc12` (single isomer, unassigned) [Compound 474, 3-(3-Chlorophenyl)-1-(1-(7,8-difluoro-1-oxo-1,2-dihydroisoquinolin-4-yl)ethyl)-1-(methyl-d3)urea], the concentration for a half-maximal effect (EC50) came to 0.015 µM.
As to `CC(c1c[nH]c(=O)c2cc(F)c(F)cc12)N(C)C(=O)N[C@@H](C)c1ccccc1` (single isomer, unassigned) [Compound 475], the concentration giving a half-maximal response (EC50) worked out at 6.1 µM.

The assay is the same for the next values; noted with them: read-out: DE-19bDNA EC50; HepDE19 assay, inhibition of formation of relaxed circular DNA (rcDNA), bDNA quantitation.
In the case of `CC(c1c[nH]c(=O)c2c(F)c(F)ccc12)N(C)C(=O)Nc1cc(Cl)cc(Cl)c1` (single isomer, unassigned) [Compound 448, 3-(3,5-Dichlorophenyl)-1-(1-(7,8-difluoro-1-oxo-1,2-dihydroisoquinolin-4-yl)ethyl)-1-methylurea], the 50% effective concentration (EC50) amounted to 0.07 µM.
In the case of `CC(c1c[nH]c(=O)c2c(F)c(F)ccc12)N(C)C(=O)Nc1cccc(F)c1` (single isomer, unassigned) [Compound 455, 1-(1-(7,8-Difluoro-1-oxo-1,2-dihydroisoquinolin-4-yl)ethyl)-3-(3-fluorophenyl)-1-methylurea], the EC50 came to 6.3 µM.
Same read-out and setting: with `CC(c1c[nH]c(=O)c2c(F)c(F)ccc12)N(C)C(=O)Nc1cccc(F)c1` (single isomer, unassigned) [Compound 456, 1-(1-(7,8-Difluoro-1-oxo-1,2-dihydroisoquinolin-4-yl)ethyl)-3-(3-fluorophenyl)-1-methylurea] the figure was 0.051 µM; with `CC(c1c[nH]c(=O)c2c(F)c(F)ccc12)N(C)C(=O)Nc1cccc(Cl)c1` (single isomer, unassigned) [Compound 460, 3-(3-Chlorophenyl)-1-(1-(7,8-difluoro-1-oxo-1,2-dihydroisoquinolin-4-yl)ethyl)-1-methylurea], 0.61 µM; with `CC(c1c[nH]c(=O)c2c(F)c(F)ccc12)N(C)C(=O)Nc1cccc(Cl)c1` (single isomer, unassigned) [Compound 461, 3-(3-Chlorophenyl)-1-(1-(7,8-difluoro-1-oxo-1,2-dihydroisoquinolin-4-yl)ethyl)-1-methylurea], 0.011 µM.
As to `CCN(C(=O)Nc1ccccc1)C(C)c1c[nH]c(=O)c2c(F)c(F)ccc12` (single isomer, unassigned) [Compound 466, 1-(1-(7,8-Difluoro-1-oxo-1,2-dihydroisoquinolin-4-yl)ethyl)-1-ethyl-3-phenylurea], the 50% effective concentration (EC50) stood at 8.5 µM.
On the same count and under the same terms, the result for `CCN(C(=O)Nc1ccccc1)C(C)c1c[nH]c(=O)c2c(F)c(F)ccc12` (single isomer, unassigned) [Compound 467, 1-(1-(7,8-Difluoro-1-oxo-1,2-dihydroisoquinolin-4-yl)ethyl)-1-ethyl-3-phenylurea] reads 0.066 µM.
